In ChEMBL document CHEMBL3217443, “The Discovery of Novel 10,11-Dihydro-5H-dibenz[b,f]azepine SIRT2 Inhibitors” (Medchemcomm, 2012):
Active and inactive are the calls of the source. The calls are words filed in the database; no cut-off is given here.

Experiments:
[1] = biological target: T1, NAD-dependent protein deacetylase sirtuin-1 (Homo sapiens) (UniProt Q96EB6); test: Inhibition of SIRT1 in human MCF7 cells assessed as increase in acetylation of H3-K9 up to 50 uM after 24 hrs by Western blot analysis; type: cell-based
T1 sequence (whole entry): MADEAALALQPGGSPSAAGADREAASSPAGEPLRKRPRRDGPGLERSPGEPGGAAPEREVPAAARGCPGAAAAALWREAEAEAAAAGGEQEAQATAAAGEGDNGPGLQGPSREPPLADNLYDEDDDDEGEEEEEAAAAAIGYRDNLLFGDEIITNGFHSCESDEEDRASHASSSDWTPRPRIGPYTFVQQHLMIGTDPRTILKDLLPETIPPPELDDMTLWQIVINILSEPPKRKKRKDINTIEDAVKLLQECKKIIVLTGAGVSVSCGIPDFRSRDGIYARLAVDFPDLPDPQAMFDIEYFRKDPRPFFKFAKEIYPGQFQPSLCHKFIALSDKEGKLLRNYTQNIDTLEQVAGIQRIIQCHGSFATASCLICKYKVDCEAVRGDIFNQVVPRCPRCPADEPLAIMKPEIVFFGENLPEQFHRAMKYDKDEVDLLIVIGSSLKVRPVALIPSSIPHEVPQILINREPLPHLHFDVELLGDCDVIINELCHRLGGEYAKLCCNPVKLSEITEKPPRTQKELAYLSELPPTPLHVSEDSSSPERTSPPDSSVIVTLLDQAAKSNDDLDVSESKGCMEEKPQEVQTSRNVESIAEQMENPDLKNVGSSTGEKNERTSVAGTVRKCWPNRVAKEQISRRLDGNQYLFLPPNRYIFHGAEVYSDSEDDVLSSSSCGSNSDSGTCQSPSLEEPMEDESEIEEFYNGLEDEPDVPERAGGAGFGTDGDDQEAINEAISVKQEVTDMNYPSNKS

[2] = test system: MCF7; test: Cell cycle arrest in human MCF7 cells assessed as accumulation at S phase at 50 uM after 24 hrs by flow cytometry (reference value: 30.8 %); type: functional
[3] = test system: MCF7; test: Cell cycle arrest in human MCF7 cells assessed as accumulation at G1 phase at 50 uM after 24 hrs by flow cytometry (reference value: 43.5 %); type: functional
[4] = biological target: T1, NAD-dependent protein deacetylase sirtuin-1 (Homo sapiens); test: Inhibition of recombinant human N-tagged GST-SIRT1 fusion protein using fluorescent ZMAL as substrate at 50 uM after 4 hrs by homogeneous fluorescent deacetylase assay
[5] = test system: MCF7; test: Cell cycle arrest in human MCF7 cells assessed as accumulation at sub-G1 phase at 50 uM after 24 hrs by flow cytometry (reference value: 0.3 %); type: functional
[6] = biological target: T1, NAD-dependent protein deacetylase sirtuin-1 (Homo sapiens); test: Inhibition of SIRT1 in human MCF7 cells assessed as increase in acetylation of p53 at lys 382 at 50 uM after 24 hrs by Western blot analysis; type: cell-based
[7] = test system: MCF7; test: Cell cycle arrest in human MCF7 cells assessed as accumulation at G2-M phase at 50 uM after 24 hrs by flow cytometry (reference value: 22.6 %); type: functional
[8] = biological target: T2, NAD-dependent protein deacetylase sirtuin-2 (Homo sapiens) (UniProt Q8IXJ6); test: Inhibition of recombinant human full length SIRT2 using fluorescent ZMAL as substrate at 50 uM after 4 hrs by homogeneous fluorescent deacetylase assay
T2 sequence (whole entry): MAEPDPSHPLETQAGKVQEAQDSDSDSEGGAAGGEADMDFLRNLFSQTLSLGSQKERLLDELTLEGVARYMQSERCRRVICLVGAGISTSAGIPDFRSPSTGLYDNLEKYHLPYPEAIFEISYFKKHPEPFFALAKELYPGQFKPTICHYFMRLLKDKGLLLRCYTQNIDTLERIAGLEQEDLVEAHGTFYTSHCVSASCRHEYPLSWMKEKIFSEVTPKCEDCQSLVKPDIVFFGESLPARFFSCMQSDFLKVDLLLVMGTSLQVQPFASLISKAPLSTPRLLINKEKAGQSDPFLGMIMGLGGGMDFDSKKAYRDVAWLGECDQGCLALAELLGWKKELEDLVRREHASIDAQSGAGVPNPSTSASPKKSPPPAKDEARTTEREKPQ

[9] = biological target: T3, NAD-dependent protein deacetylase sirtuin-2 (Homo sapiens, UniProt Q8IXJ6); test: Inhibition of recombinant human full length SIRT2 using fluorescent ZMAL as substrate after 4 hrs by homogeneous fluorescent deacetylase assay
T3 sequence (Q8IXJ6 whole entry): T2 sequence (whole entry)

[10] = biological target: T2, NAD-dependent protein deacetylase sirtuin-2 (Homo sapiens); test: Inhibition of SIRT2 in human MCF7 cells assessed as increase in hyperacetylation of alpha-tubulin up to 50 uM after 24 hrs by Western blot analysis; type: cell-based
[11] = test system: MCF7; test: Antiproliferative activity against human MCF7 cells at 30 uM after 24 to 72 hrs; type: functional
[12] = biological target: T1, NAD-dependent protein deacetylase sirtuin-1 (Homo sapiens); test: Inhibition of recombinant human N-tagged GST-SIRT1 fusion protein using fluorescent ZMAL as substrate at 500 uM after 4 hrs by homogeneous fluorescent deacetylase assay
[13] = species: Homo sapiens; test: Selectivity ratio of IC50 for recombinant human N-tagged GST-SIRT1 fusion protein to IC50 for recombinant human full length SIRT2
[14] = biological target: T2, NAD-dependent protein deacetylase sirtuin-2 (Homo sapiens); test: Inhibition of SIRT2 in human MCF7 cells assessed as decrease in phosphorylation of pRB at Ser807/Ser811 at 50 uM after 24 hrs by Western blot analysis; type: cell-based
[15] = biological target: T1, NAD-dependent protein deacetylase sirtuin-1 (Homo sapiens); test: Inhibition of recombinant human N-tagged GST-SIRT1 fusion protein using fluorescent ZMAL as substrate at 100 uM after 4 hrs by homogeneous fluorescent deacetylase assay
[16] = biological target: T4, NAD-dependent protein deacetylase sirtuin-1 (Homo sapiens, UniProt Q96EB6)
T4 sequence (Q96EB6 whole entry): T1 sequence (whole entry)
Description: Inhibition of recombinant human N-tagged GST-SIRT1 fusion protein using fluorescent ZMAL as substrate after 4 hrs by homogeneous fluorescent deacetylase assay

## O=C(Nc1cccc(Br)c1)c1cccc(S(=O)(=O)N2CCCCCC2)c1
[1]
  inhibition: inactive
[2]
  Activity: 20%
[3]
  Activity: 54.3%
[4]
  inhibition: < 25%
[5]
  Activity: 0.4%
[6]
  inhibition: Active
[7]
  Activity: 25.3%

## OCc1ccc2c(c1)CCc1cc(CO)ccc1N2
[8]
  inhibition: < 25%
[4]
  inhibition: < 25%

## O=[N+]([O-])c1ccc2c(c1)Nc1ccccc1CC2
[8]
  inhibition: < 25%
[4]
  inhibition: < 25%

## NC(=O)c1ccc2c(c1)CCc1cc(N)ccc1N2
[8]
  inhibition: < 25%
[4]
  inhibition: < 25%

## N#Cc1ccc2c(c1)CCc1cc(C(N)=O)ccc1N2
[8]
  inhibition: < 25%
[4]
  inhibition: < 25%

## CC(C)(C)NC(=O)c1ccc2c(c1)CCc1ccccc1N2
[9]
  IC50: 100 µM
[4]
  inhibition: < 25%

## c1ccc2c(c1)CCc1ccccc1N2
[8]
  inhibition: < 25%
[4]
  inhibition: < 25%

## N#Cc1ccc2c(c1)CCc1cc(C#N)ccc1N2
[8]
  inhibition: < 25%
[4]
  inhibition: < 25%

## CC(NC(=O)c1ccccc1/N=C/c1c(O)ccc2ccccc12)c1ccccc1 (stereo not drawn) [SIRTINOL]
[10]
  inhibition: inactive
[1]
  inhibition: inactive
[2]
  Activity: 9.7%
[3]
  Activity: 71.5%
[5]
  Activity: 0.7%
[6]
  inhibition: Active
[7]
  Activity: 18%
[11]
  Activity: Active

## OCc1ccc2c(c1)CCc1cccc(CO)c1N2
[8]
  inhibition: < 25%
[4]
  inhibition: < 25%

## NC(=O)C1CCCc2c1[nH]c1ccc(Cl)cc21 (stereo not drawn)
[2]
  Activity: 10.3%
[3]
  Activity: 73.8%
[5]
  Activity: 1.2%
[7]
  Activity: 15.7%
[11]
  Activity: 50%

## NC(=O)c1ccc2c(c1)CCc1cc(Cl)ccc1N2
[8]
  inhibition: < 25%
[4]
  inhibition: < 25%

## NC(=O)c1ccc2c(c1)CCc1cc([N+](=O)[O-])ccc1N2
[12]
  inhibition: 11%
[13]
  Ratio IC50: > 30
[10]
  inhibition: Active
[1]
  inhibition: inactive
[14]
  inhibition: Active
[15]
  inhibition: 1%
[2]
  Activity: 18%
[9]
  IC50: 17.6 µM
[3]
  Activity: 42.2%
[5]
  Activity: 0.9%
[6]
  inhibition: inactive
[7]
  Activity: 38.9%
[11]
  Activity: Active

## CN1c2ccc(C(N)=O)cc2CCc2cc([N+](=O)[O-])ccc21
[15]
  inhibition: 23%
[9]
  IC50: 77.5 µM

## NC(=O)c1ccc2c(c1)CCc1ccccc1N2
[8]
  inhibition: < 25%
[4]
  inhibition: < 25%

## CC(C(=O)Nc1cccc(/N=C/c2c(O)ccc3ccccc23)c1)c1ccccc1 (stereo not drawn) [SALERMIDE]
[16]
  IC50: 76 µM
[10]
  inhibition: Active
[1]
  inhibition: inactive
[2]
  Activity: 16.4%
[9]
  IC50: 45 µM
[3]
  Activity: 56.1%
[5]
  Activity: 1.1%
[6]
  inhibition: Active
[7]
  Activity: 26.4%
[11]
  Activity: Active

## NC(=O)c1cccc2c1Nc1ccccc1CC2
[8]
  inhibition: < 25%
[4]
  inhibition: < 25%

## NC(=O)c1ccc2c(c1)CCc1cccc(CO)c1N2
[8]
  inhibition: < 25%
[4]
  inhibition: < 25%

## NC(=O)c1ccc2c(c1)CCc1cc(C(N)=O)ccc1N2
[8]
  inhibition: < 25%
[4]
  inhibition: < 25%

## NC(=O)N1c2ccccc2CCc2ccccc21
[8]
  inhibition: < 25%
[4]
  inhibition: < 25%

## CC(C)(C)NS(=O)(=O)c1ccc2c(c1)Nc1ccccc1CC2
[15]
  inhibition: 12%
[9]
  IC50: 29.8 µM

## NC(=O)c1ccc2c(c1)CCc1cccc([N+](=O)[O-])c1N2
[8]
  inhibition: < 25%
[4]
  inhibition: < 25%

## N#Cc1ccc2c(c1)CCc1cc([N+](=O)[O-])ccc1N2
[8]
  inhibition: < 25%
[4]
  inhibition: < 25%

## O=[N+]([O-])c1ccc2c(c1)CCc1ccccc1N2
[8]
  inhibition: < 25%
[4]
  inhibition: < 25%

## N#Cc1ccc2c(c1)CCc1ccccc1N2
[8]
  inhibition: < 25%
[4]
  inhibition: < 25%
